Several values for one entry are separate records, joined by “and”; a condition that tells them apart may be missing. Equal entries are not always repeated. Entries after “also recorded” stand apart in the source; their conditions may differ.
How the values were obtained:
[1] = tested on: GAF distribution at the bw^D insert of polytene nuclei; test: GAF immunofluorescence in permeabilized bw^D salivary glands; assay type: cell-based, Drosophila melanogaster; details: permeabilized glands incubated 60 minutes with compound
Procedure: We argued that perhaps P31 may open the bw^D insert as to render this heterochromatin more accessible for GAF binding. To address this question, we incubated permeabilized bw^D salivary glands either with P31, P9 or no drug and then triply stained the polytene nuclei for GAF (by immunofluorescence), total DNA (with DAPI) and for the bw^D insert (with P31T). Stained polytene glands were gently mounted for microscopy without squashing in order examine a large number of nuclei.
Kc nuclei and polytene chromosomes were stained with fluorescent polyamides as described elsewhere (Janssen et al., 2000). For immunofluorescence, polytene glands were carefully dissected from bw^D or Canton S. flies in 1× PBS as described (Ashburner, 1989) Whole glands in sol P (1×PBS supplemented with 1 mM MgCl2 and 0.1% digitonin) were then incubated for 60 minutes with various concentrations of either P31, P9 or no compound at room temperature. P31 (not P9) induced redistribution of GAF during this incubation step. Glands were washed then twice for 5 min with sol P and fixed with fresh paraformaldehyde at a final concentration of 0.8%. Glands were washed 5 times in sol P for 5 min and then blocked for 60 min in the same buffer, supplemented with 5% non-fat milk. […] Images were recorded with a wide field, deconvolution-type imaging system from DeltaVision.

[2] = tested on: satellite III chromatin in Kc nuclei; test: Chromatin opening of satellite III: topoisomerase II / restriction enzyme cleavage in Kc nuclei; assay type: biochemical, Drosophila
[3] = tested on: heterozygous bw^D flies (bw^D/+); test: Polyamides fed to developing heterozygous brown-dominant flies; assay type: in vivo, Drosophila melanogaster; details: for eye phenotype / trans-inactivation (in words): bw^D/+, st/st progeny
Procedure: It was therefore of great interest to test whether P31 would affect the eye phenotype of heterozygous bw^D flies. […] The experiment is similar to that described above for w^m4. Vials with semi-synthetic fly food medium were prepared containing a final concentration of 100 μM P31, P9 or no compound. Egg laying was allowed to proceed for 36 hours by homozygous (bw^D/bw^D) females that were crossed with scarlet (st/st) males. The progeny from this cross is heterozygous for the brown locus and homozygous for scarlet (bw^D/+; st/st). In a scarlet background, a modification of the bw^D eye color is much easier to observe (Talbert et al., 1994).
Drug treatments of the bw^D flies were performed as for w^m4 flies except that 30 parental females were allowed to lay eggs. To obtain the heterozygous bw^D/+; st/st progeny, 30 virgin bw^D/bw^D; st/st homozygous females were mated with scarlet homozygous males for about 5 days before transferring them to experimental vials for egg laying.
(§1) The lethality of the progenies was calculated by counting the dead bodies and the total empty pupal shells. The A6 to A5 transformation was detected by bristles that form on abdominal segment A6 on males. All male adult flies obtained (˜50) were scored. Sex combs and halteres were individually inspected and photographed under the microscope (Axiophot, Zeiss) after dissecting at least 30 individuals and incubating them into 30 μl of 0.6 g/ml gum arabic; 4 g/ml chlorohydrate; 35% glycerol under a 24×24 mm coverslip as described (Ashburner, 1989). Since raising double heterozygous flies (Ubx^1/+; bw^D/+) led to lethality, we morphologically dissected eight late stage pupae after carefully removing the pupal envelope.

[4] = tested on: w^m4 flies; test: Polyamides fed to developing white-mottled flies; assay type: in vivo, Drosophila melanogaster; details: for Lethality / Sex comb (mean) / Sex comb, range of teeth / A6 to A5: fly stock w^m4; for A6 to A5: males with bristles on A6
Text: The eye phenotype of w^m4 flies is quite heterogeneous. About 65% of the eyes are strongly variegated, ranging from quasi-white with little pigment to those containing a generally white background and a number of red patches (defined as the white-mottled class). The remaining flies have eyes with a darker appearance with often larger red patches in an orange background (red-mottled class). Given the phenotypic heterogeneity of w^m4 flies, we carried out our experiments on a relatively large scale by mixing these compounds directly with semi-synthetic fly medium. Vials were prepared containing a final concentration of either 100 μM P9, P31 or no compound. Equal numbers of 5 to 10 days old w^m4 flies were allowed to lay eggs for 36 hours. The parents were then removed and progeny development was allowed to proceed at a constant temperature of 18° C. […] The timing of the developmental stages was also normal and generally, around 90 to 160 flies hatched per vial in this experiment (Table 2).
For eye phenotype analysis, young flies born on the same day were transferred to a drug-free vial and scored 5 days thereafter. Eye phenotypes were categorized into the two classes defined as white-mottled or red-mottled, after examination under a dissection microscope. […] Where in the absence of the drug, 62% of the eyes were scored as white-mottled, only 11% retained this phenotype for the flies raised in the presence of P9. […] In contrast, P31 had no effect on the w^m4 eye phenotype, since 64% of the flies remained white-mottled (FIG. 7C, Table 2).
Vials for egg laying containing polyamides were prepared as follows: 250 nmoles of P9, P31 was dissolved in 150 μl ddH2O and then mixed with 2.35 g of semi-synthetic fly media pre-heated at 60° C. These vials contained a concentration 100 μM of compound in final. After cooling down to room temperature, ˜300 w^m4 flies (age 5-10 days) were added to the vial for egg laying. Eggs were collected for a period of 36 hours at 18° C., mother flies were then removed and fly development was allowed to proceed at a constant temperature (18° C.±1). New-born flies of the same day were transferred to a fresh vial and scored after 5 days for eye phenotypes (Girard et al., 1998). For visual inspection of eye-phenotypes (Table 1), both female and male flies were scored. For optical density measurements of the eye-pigments, 30 heads of males were selected, pigments extracted and measured as described (Hazelrigg et al., 1984).
as §1

[5] = 100 μM in fly food, eyes scored after 5 days
[6] = 30 male heads, spectrometry, 100 μM in food

CN(C)CCCNC(=O)CCNC(=O)c1nc(NC(=O)CCNC(=O)c2nc(NC(=O)CCNC(=O)c3cc(NC(=O)c4nc(NC(=O)CCNC(=O)c5nccn5C)cn4C)cn3C)cn2C)cn1C [Compound P31, Im-β-Im-Py-β-Im-β-Im-β-Dp]
GAF distribution relative to the bw^D insert [1]: dramatic GAF redistribution
concentration giving cleavage stimulation comparable to 62 nM of P9 [2]: 500 nM
stimulation of topoisomerase II cleavage up to 200 nM ([2]; up to 200 nM): no significant reinforcement
mean number of bristles on A6 ([3]; bw^D/+ progeny): 3.75
eye phenotype / trans-inactivation (in words) [3]: does not overcome trans-inactivation to a significant extent
Lethality ([3]; fly stock bw^D/bw^+): 5-10%
Sex comb (mean) ([3]; fly stock bw^D/bw^+): 8.1
Sex comb, range of teeth ([3]; fly stock bw^D/bw^+): 7-10
PEV ([3]; fly stock bw^D/bw^+, grade, key not given): (+?)
progeny lacking bristles on A6 ([3]; heterozygous progeny): about 10%
Pupae delay ([3]; in vivo): 65 to 67 h
developmental delay ([3]; in vivo): over 2 days
effect on PEV / w^m4 eye phenotype (in words) ([4]; 100 μM in fly food): no effect; also recorded: no activity
"White mottled" (Strongly Variegated) [4, 5]: 64%
"red Mottled" (Weakly Variegated) [4, 5]: 36%
Lethality [4]: 5-10%
Sex comb (mean) [4]: 10.8
Sex comb, range of teeth [4]: 9-13
A6 to A5 [4]: 0%

CN(C)CCCNC(=O)CCNC(=O)c1cc(NC(=O)c2cc(NC(=O)c3cc(NC(=O)CCNC(=O)c4cc(NC(=O)c5cc(NC(=O)c6cccn6C)cn5C)cn4C)cn3C)cn2C)cn1C [Compound P9, PyPyPy-β-PyPyPy-β-Dp]
GAF distribution relative to the bw^D insert [1]: does not alter this pattern
facilitation of cleavage by topoisomerase II (in words) [2]: strongly facilitate cleavage
stimulation of topoisomerase II cleavage at 62 nM ([2]; 62 nM, lowest concentration): massive cleavage stimulation
concentration of maximal stimulation of topoisomerase II cleavage ([2]; Kc nuclei in Xenopus egg extracts, VM26): 500 nM and 500 to 1000 nM
lower concentration than P31 needed to open satellite III ([2]; P9 versus P31): roughly 10 fold
cleavage within satellite III by restriction enzymes (HaeIII) ([2]; data not shown): facilitated cleavage within satellite III by restriction enzymes
eye phenotype / trans-inactivation (in words) [3]: indistinguishable from that of the no-drug control
A6 to A5, number of bristles on A6 ([3]; fly stock bw^D/bw^+): no bristles were observed
Lethality ([3]; fly stock bw^D/bw^+): 5-10%
A6 to A5 ([3]; fly stock bw^D/bw^+, males with bristles on A6): 0%
effect on PEV / w^m4 eye phenotype (in words) ([4]; 100 μM in fly food): strong suppressor of PEV
"White mottled" (Strongly Variegated) [4, 5]: 8.9%
red pigment level relative to control flies (no drug) [4, 6]: about 3 times
red pigment level relative to wild type flies [4, 6]: about 50%
Lethality [4]: 5-10%
Sex comb (mean) [4]: 10.8
Sex comb, range of teeth [4]: 9-12
A6 to A5 [4]: 0%
